Entries after “also recorded” stand apart in the source; their conditions may differ. Positions of bridges follow the written chain, without caps; N, C: chain ends. Non-standard residues stand in square brackets, D forms with d. Residues, ends and D or L forms follow the SMILES beside them. No end group written: not given here. d2Nal = N[C@H](Cc1ccc2ccccc2c1)C(=O)O; Nle = CCCC[C@H](N)C(=O)O
Tests used:
[1] = system: urethane-anesthetized rats; test: Cardiovascular effects (MAP, heart rate, ECG) in urethane-anesthetized rats
Protocol: These studies were performed in urethane-anesthetized rats, since anesthesia is required for six-lead ECG monitoring. […] Initial selection of doses was guided by FDA exploratory IND studies with a recommendation for at least a 100-fold excess of the human dose.

Lewis sarcoma rat model = Lewis sarcoma rat model of cancer cachexia; format: in vivo
Protocol: This sarcoma is an aggressive form of cancer that produces significant cachexia. Popp et al., Cancer 49 (6): 1212-1220 (1982). In the protocol, “treatment” began 8-days after tumor implantation, with a significant decrease in food intake from baseline. Body composition was determined by NMR prior to tumor implantation, and on the final day of the experiment after tumor resection, by ECHO MRI (NMR). Tumor implantation produces cachexia on or about the sixth day. The non-naturally occurring melanocortin analog or saline was administered after day 8 and continued through day 12.

LPS model of cachexia = test: LPS-induced cachexia assay in rats; format: in vivo, rat; settings: for peripheral (IP) anti-cachexia activity / blood-brain barrier transport: peripheral administration
Protocol: The LPS model uses rats were maintained on a 12 h light/dark schedule with ad libitum access to food and water. Animals were handled daily for a minimum of three consecutive days to decrease non-specific handling stress. On the day of the experiment, individually housed animals received intraperitoneal injections of LPS dissolved in 0.5% low-endotoxin BSA, 0.9% saline or 0.5% BSA in 0.9% saline alone, and were returned to their home cage. The drug or control was administered (ICV, IP, or PO, depending on the type of study) 1-hour after LPS injection.
In the experiments performed in accordance with the present technology, a series of melanocortin receptor antagonist peptides were examined in a bacterial endotoxin inducing cachexia assay. For this assay, a rat is challenged with a single peripheral injection of lipopolysaccharide (LPS). LPS is a heat-stable lipo-polysaccharide, the major component of the outer membrane (capsule) of gram negative bacteria. In non-capsulated strains, it appears as a cell surface protein. LPS produces a strong immune response, including secretion of the proinflammatory cytokines Tumor Necrosis Factor α (TNFα) and interleukin-1 (IL-1). Proinflammatory cytokines are known factors that induce cachexia.
Rats are maintained on a 12-hour light/dark cycle. Animals are handled daily for a minimum of 5 consecutive days to acclimate them to the handling required for the experiment. […] On the day of the experiment, individually housed animals receive intraperitoneal (IP) injections of LPS dissolved in 0.5% low-endotoxin BSA, 0.9% saline or 0.5% BSA in 0.9% saline alone, and returned in their home cage. Melanocortin receptor antagonist peptides were administered (IP or by gavage, depending on the type of study) one hour after the LPS injection. The extent of cachexia is measured by the reduction in food intake, measured every two hours. The cachexia typically lasts only a single day. However, rats lose up to 5% of their body weight during a 12-hour light cycle, making up this loss plus food needed for normal growth during the 12-hour dark cycle. Thus, failure to eat appropriately during a single dark cycle is determinable from the animal's weight and any changes thereof.
A series of melanocortin receptor antagonist peptides were examined in a bacterial toxin inducing cachexia assay. In this assay, a rat was challenged with a single peripheral injection of lipopolysaccharide (LPS), a bacterial toxin that rapidly induces acute cachexia. The extent of cachexia was measured as a reduction in food intake, measured every two hours. The cachexia typically lasts only a single day.

[2] = molecular target: human melanocortin 3 receptor (MC3R) (human) (UniProt P41968); test: cell-based or functional assay
Chain of human melanocortin 3 receptor (MC3R) (human) (P41968 whole entry): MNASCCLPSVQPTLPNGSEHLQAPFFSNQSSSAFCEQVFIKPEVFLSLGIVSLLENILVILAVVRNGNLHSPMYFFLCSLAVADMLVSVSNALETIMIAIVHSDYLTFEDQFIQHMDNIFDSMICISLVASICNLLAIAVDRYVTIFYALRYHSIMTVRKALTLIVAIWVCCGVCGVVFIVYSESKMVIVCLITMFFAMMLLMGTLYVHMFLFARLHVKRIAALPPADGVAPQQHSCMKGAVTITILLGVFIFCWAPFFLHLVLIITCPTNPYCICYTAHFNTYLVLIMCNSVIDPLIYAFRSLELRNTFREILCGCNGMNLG

[3] = molecular target: human melanocortin 4 receptor (MC4R) (human) (UniProt P32245); test: cell-based or functional assay
Chain of human melanocortin 4 receptor (MC4R) (human) (P32245 whole entry): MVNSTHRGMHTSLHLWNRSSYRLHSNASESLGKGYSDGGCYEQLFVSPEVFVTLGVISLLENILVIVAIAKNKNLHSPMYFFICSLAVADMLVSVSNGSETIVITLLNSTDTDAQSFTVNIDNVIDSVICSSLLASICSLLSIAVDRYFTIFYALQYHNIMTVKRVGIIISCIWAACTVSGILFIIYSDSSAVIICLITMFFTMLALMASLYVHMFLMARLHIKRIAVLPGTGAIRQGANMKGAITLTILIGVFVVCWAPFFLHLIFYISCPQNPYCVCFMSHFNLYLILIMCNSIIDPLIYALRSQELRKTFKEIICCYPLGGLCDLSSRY

[4] = molecular target: human melanocortin 3 receptor (MC3R) (human, UniProt P41968 1-323); test: cell-based or functional assay
Chain of human melanocortin 3 receptor (MC3R) (P41968 whole entry): as the sequence (P41968 whole entry) above

[5] = molecular target: human melanocortin 4 receptor (MC4R) (human, UniProt P32245 1-332); test: cell-based or functional assay
Chain of human melanocortin 4 receptor (MC4R) (P32245 whole entry): as the sequence (P32245 whole entry) above

Molecule: CCCC[C@H](NC(C)=O)C(=O)N[C@H]1CC(=O)NCCCC[C@@H](C(=O)O)NC(=O)[C@H](Cc2c[nH]c3ccccc23)NC(=O)[C@H](CCCN=C(N)N)NC(=O)[C@@H](Cc2ccccc2)NC(=O)[C@H](Cc2cnc[nH]2)NC1=O [Bremelanotide (PT-141), Ac-Nle-c[Asp-His-DPhe-Arg-Trp-Lys]-COOH]
- Duration ([1]; 250 nmol): 140 ± 53 min
- Peak Heart Rate Response (BPM) ([1]; 250 nmol): 44 ± 6 BPM
- Peak MAP Response (Δ mm Hg) ([1]; 250 nmol): 32 ± 6 mm Hg
- MAP after lethal dose ([1]; 900 nmol/kg IV, baseline MAP 80 mmHg): 140 mmHg
- lethal dose ([1]; IV): 900 nmol/kg
- ECG tracing (lead 2) ([1]; IV 600 nmol/kg): inverted P-wave

Molecule: CCCC[C@H](NC(=O)[C@H](Cc1ccc(O)cc1)NC(=O)[C@H](CO)NC(C)=O)C(=O)N[C@@H](CCC(=O)O)C(=O)N[C@@H](Cc1c[nH]cn1)C(=O)N[C@H](Cc1ccccc1)C(=O)N[C@@H](CCCNC(=N)N)C(=O)N[C@@H](Cc1c[nH]c2ccccc12)C(=O)NCC(=O)N[C@@H](CCCCN)C(=O)N1CCC[C@H]1C(=O)N[C@H](C(N)=O)C(C)C [MT-I, Ac-Ser-Tyr-Nle-Glu-His-DPhe-Arg-Trp-Gly-Lys-Pro-Val-NH2] (Ac-SY[Nle]EH[dF]RWGKPV-NH2)
- Duration ([1]; 250 nmol): 0 min
- Peak Heart Rate Response (BPM) ([1]; 250 nmol): 0/0 BPM
- Peak MAP Response (Δ mm Hg) ([1]; 250 nmol): 0/0 mm Hg

Molecule: CCCC[C@H](NC(C)=O)C(=O)N[C@H]1CC(=O)NCCCC[C@@H](C(=O)N[C@@H](C(=O)N2CCC[C@@H]2C(=O)N[C@@H](C(=O)O)[C@H](C)O)[C@H](C)O)NC(=O)[C@H](Cc2c[nH]c3ccccc23)NC(=O)[C@H](CCCNC(=N)N)NC(=O)[C@@H](Cc2ccc3ccccc3c2)NC(=O)[C@@H]2CCCN2C1=O [TCMCB01, Ac-Nle-c[Asp-Pro-DNal(2′)-Arg-Trp-Lys]-DThr-DPro-DThr] (Ac-[Nle]DP[d2Nal]RWK[dT][dP][dT]-OH; lactam 2-7)
- food intake (reversal of cachexia-anorexia) (Lewis sarcoma rat model; 2 nmol once per day): equivalent to AGRP; also recorded: reversed the cachexia-anorexia of the tumor burden
- potency compared with AGRP and SHU9119 (Lewis sarcoma rat model; 2 nmol once per day): as potent as the natural melanocortin system inhibitor Agouti Related Protein (AGRP), and significantly more potent than SHU9119
- body weight after tumor implantation (Lewis sarcoma rat model; daily body weight): significantly greater than saline controls
- lean body mass (NMR after tumor excision) (Lewis sarcoma rat model; p=0.05): increased lean body mass
- anti-cachectic effect relative to AGRP (Lewis sarcoma rat model; related study (not shown)): 20 % greater than AGRP
- anti-cachectic activity after ICV administration (LPS model of cachexia): only produced an anti-cachexia effect when given by IVt administration
- peripheral (IP) anti-cachexia activity / blood-brain barrier transport (LPS model of cachexia): did not have peripheral activity; also recorded: no blood-brain barrier transport
- Duration ([1]; 600 nmol): 0 min
- Peak Heart Rate Response (BPM) ([1]; 600 nmol): 0/0 BPM
- Peak MAP Response (Δ mm Hg) ([1]; 600 nmol): 0/0 mm Hg
- cardiovascular activity / side effects ([1]; rat, in vivo): little cardiovascular activity

Molecule: O=C(N[C@H](Cc1ccc(Cl)cc1)C(=O)N1CCC(Cn2cncn2)(C2CCCCC2)CC1)[C@H]1Cc2ccccc2CN1 [THIQ, N-[(3R)-1,2,3,4-tetrahydroisoquinolinium-3-ylcarbonyl]-(1R)-1-(4-chlorobenzyl)-2-[4-cyclohexyl-4-(1H-1,2,4-triazol-1-ylmethyl)piperidin-1-yl]-2-oxoethylamine]
- Duration ([1]; 300 nmol): 19 ± 4 min
- Peak Heart Rate Response (BPM) ([1]; 300 nmol): 81 ± 09 BPM
- Peak MAP Response (Δ mm Hg) ([1]; 300 nmol): 22 ± 11 mm Hg

Molecule: Ac-Nle-c[Asp-His-DNal(2′)-Arg-Trp-Lys]-DPro-DVal-NH2 (Ac-[Nle]DH[d2Nal]RWK[dP][dV]-NH2; lactam 2-7; SMILES CCCC[C@H](NC(C)=O)C(=O)N[C@H]1CC(=O)NCCCC[C@@H](C(=O)N2CCC[C@@H]2C(=O)N[C@@H](C(N)=O)C(C)C)NC(=O)[C@H](Cc2c[nH]c3ccccc23)NC(=O)[C@H](CCCNC(=N)N)NC(=O)[C@@H](Cc2ccc3ccccc3c2)NC(=O)[C@H](Cc2c[nH]cn2)NC1=O) [TCMCB03]
- anti-cachectic activity after ICV administration (LPS model of cachexia): enhanced anti-cachexia; also recorded: superior anti-cachexia activity following ICV administration
- peripheral (IP) anti-cachexia activity / blood-brain barrier transport (LPS model of cachexia): failed to cross the blood brain barrier; also recorded: did not possess as good peripheral (intraperitoneal/IP administration) anti-cachexia activity

Molecule: Ac-Nle-c[Asp-Pro-DNal(2′)-Arg-Trp-Lys]-DVal-DPro (Ac-[Nle]DP[d2Nal]RWK[dV][dP]; lactam 2-7) [TCMCB07A]
- peripheral (IP) anti-cachexia activity / blood-brain barrier transport (LPS model of cachexia): equivalent stimulation of feeding

Molecule: Ac-Nle-c[Asp-Pro-DNal(2′)-Arg-Trp-Lys]-β^2Val-β^3Pro-NH2 [TCMCB08]
- oral activity / gastrointestinal transport (LPS model of cachexia; gavage (intra-gastric)): no gastrointestinal transport; also recorded: not as much oral activity as TCMCB07
- peripheral (IP) anti-cachexia activity / blood-brain barrier transport (LPS model of cachexia): has peripheral activity; also recorded: good blood-brain barrier transport

Molecule: Ac-Nle-c[Asp-Pro-DNal(2′)-Arg-Trp-Lys]-β^3Pro-β^3Pro-NH2 [TCMCB10]
- anti-cachectic activity after ICV administration (LPS model of cachexia): maintaining direct inhibitory effects
- peripheral (IP) anti-cachexia activity / blood-brain barrier transport (LPS model of cachexia): showed no peripheral activity

Molecule: Ac-Nle-c[Asp-Pro-DNal(2′)-Arg-Trp-Lys]-β^3Pro-β^3Val-NH2 [TCMCB06]
- food intake and body weight, 24-hours (LPS model of cachexia; 0.2 mg/kg intraperitoneally): ate less food than the other non-naturally occurring melanocortin analogs, and had no weight gain
- anti-cachectic activity after ICV administration (LPS model of cachexia): molar activity equivalent to TCMCB02
- molar activity relative to TCMCB02 (LPS model of cachexia; ICV-administration): 10 fold

Molecule: Ac-Nle-c[Asp-Pro-DNal(2′)-Arg-Trp-Lys]-β^3Val-β^3Pro-NH2 [TCMCB09]
- peripheral (IP) anti-cachexia activity / blood-brain barrier transport (LPS model of cachexia): inactive peripherally

Molecule: Ac-Nle-c[Asp-Pro-dNal(2′)-Arg-Trp-Lys]-dVal-dPro-NH2 (Ac-[Nle]DP[d2Nal]RWK[dV][dP]-NH2; lactam 2-7) [TCMCB07]
- gastrocnemius mass (Lewis sarcoma rat model; low and high dose): preservation of gastrocnemius mass

Molecule: Ac-Nle-c[D-Asp-Pro-DNal(2′)-Arg-Trp-DLys]-DPro-DVal-NH2 (Ac-[Nle][dD]P[d2Nal]RW[dK][dP][dV]-NH2; lactam 2-7) [TCMCB04]
- anti-cachectic activity after ICV administration (LPS model of cachexia): superior anti-cachectic activity compared to the parent compound
- peripheral (IP) anti-cachexia activity / blood-brain barrier transport (LPS model of cachexia): No difference was observed between the non-naturally occurring melanocortin analog and saline; also recorded: eliminated blood brain barrier transport

Molecule: HS024 (TFA) (peptide)
- IC50 (cAMP by HTRF, antagonist dose-response) [2]: 867 nM
- Max Activation % [2]: 102%
- IC50 (cAMP by HTRF, antagonist dose-response) [3]: 153 nM
- Max Activation % [3]: 104%

B1: B4 (peptide)
peptide: LPFFRWVP
- Max Activation % [4]: 7.81%
- Max Activation % [5]: 16.1%

B2: B3 (peptide)
peptide: LDPFFRWKVP
modifications: lactam 2-8
- Max Activation % [4]: 0.83%
- Max Activation % [5]: 4.41%

B3: B2 (peptide)
peptide: Ac-LDPFFRWKVP-NH2
modifications: lactam 2-8
SMILES: CC(=O)N[C@@H](CC(C)C)C(=O)N[C@H]1CC(=O)NCCCC[C@@H](C(=O)N[C@H](C(=O)N2CCC[C@H]2C(N)=O)C(C)C)NC(=O)[C@H](Cc2c[nH]c3ccccc23)NC(=O)[C@H](CCCNC(=N)N)NC(=O)[C@H](Cc2ccccc2)NC(=O)[C@H](Cc2ccccc2)NC(=O)[C@@H]2CCCN2C1=O
- Max Activation % [4]: 10.3%
- Max Activation % [5]: 35.5%

B4: B1 (peptide)
peptide: Ac-[Nle]DPFFRWK[dV][dP]-NH2
modifications: lactam 2-8
SMILES: CCCC[C@H](NC(C)=O)C(=O)N[C@H]1CC(=O)NCCCC[C@@H](C(=O)N[C@@H](C(=O)N2CCC[C@@H]2C(N)=O)C(C)C)NC(=O)[C@H](Cc2c[nH]c3ccccc23)NC(=O)[C@H](CCCNC(=N)N)NC(=O)[C@H](Cc2ccccc2)NC(=O)[C@H](Cc2ccccc2)NC(=O)[C@@H]2CCCN2C1=O
- Max Activation % [4]: 6.86%
- Max Activation % [5]: 12.7%
